US20060241082A1, “Modulating vesicular monoamine transporter trafficking and function: a novel approach for the treatment of parkinson's disease” (priority 2002, published 2006)
Values joined by “and” are separate entries in the source; they are usually repeats but may differ in a detail not shown here. Identical values can stand only once. “Also recorded” adds a separate entry of the source. Like-named read-outs stand apart in the source and are kept apart here.

Experiments:
[1] = Vesicular DA content in purified striatal vesicles of treated rats; assay type: in vivo, rat
Description: Purified striatal vesicles were prepared as described above. The resulting vesicular pellet was sonicated for approximately 5 sec in cold tissue buffer (0.05 M sodium phosphate/0.03 M citric acid buffer with 15% methanol (v/v); pH 2.5) at a concentration of 100 mg/ml (original wet weight of tissue), and centrifuged for 15 min at 22,000×g. Tissue pellets were retained and protein was determined according to the method of Lowry et al. (1951). 40 μl of supernatant was injected onto a high performance liquid chromatograph system coupled to an electrochemical detector (+0.73 V) for separation and quantitation of DA levels using the method of Chapin et al. (1986).

VMAT-2 [2] = test: VMAT-2 immunoreactivity in striatal subcellular fractions (P2, P3, S3) of treated rats (Western blot); assay type: in vivo, rat; conditions: 1 h
Description: Striatal synaptosomes were prepared from rats decapitated 1 h after treatment as previously described (Fleckenstein et al., 1997). Briefly, striatal tissue was homogenized in cold 0.32 M sucrose and centrifuged (800×g for 12 min; 4° C.). The supernatant (S1) was then centrifuged (22,000×g for 15 min; 4° C.) and the resulting pellet (P2, synaptosomal fraction) was resuspended at 50 mg original wet weight/ml in cold water and a portion saved for western blot analysis. The remainder of the synaptosomal sample was centrifuged for 20 min at 22,000×g (4° C.) to pellet lysed synaptosomal membranes (P3, synaptosomal membrane fraction), which were then resuspended at 50 mg original wet weight/ml and saved for western blot analysis. Prior to resuspension of the plasmalemmal membrane fraction the supernatant (S3, vesicle-enriched fraction) was removed and saved for western blot analysis.
Binding of VMAT-2 antibody was performed using 60 μl aliquots of synaptosomal (P2), synaptosomal membrane (P3), or vesicle-enriched (S3) preparations. Each aliquot was added to 20 μl of loading buffer (final concentration: 2.25% sodium dodecyl sulfate, 18% glycerol, 180 mM Tris base (pH 6.8), 10% β-mercapto-ethanol and bromophenol blue), boiled for 10 min, and loaded on a 10% sodium dodecyl sulfate-polyacrylamide gel. Following electrophoresis, samples were transferred to polyvinlylidene difluoride membrane, blocked with 5% nonfat dry milk in Tris-buffered saline with tween (250 mM NaCl, 50 mM Tris pH 7.4 and 0.05% Tween 20), and probed with the VMAT-2 antibody (provided by J.W.H.). Bound antibody was visualized with HRP-conjugated goat anti-rabbit antibody, and antigen-antibody complexes were visualized by chemiluminescence. Multiple exposures of blots were obtained to ensure development within the linear range of the film. Bands on blots were quantified by densitometry using Kodak 1D image-analysis software.
Fresh striatal tissue was homogenized in ice-cold 0.32 M sucrose and centrifuged (800×g for 12 min; 4° C.). […] Resuspended tissue was aliquoted into two test tubes. One aliquot was centrifuged (22,000×g for 10 min; 4° C.) to separate plasmalemmal membranes from the synaptic vesicle-enriched fraction. The resulting supernatant (S3) contained the vesicular subcellular fraction of interest, and the pellets (P3; plasmalemmal membrane fraction) were resuspended in cold distilled deionized water.
VMAT-2 antibody was purchased from Chemicon (Temecula, Calif.; AB1767). Binding of VMAT-2 antibody was performed using 60 μl of whole synaptosomal, plasmalemmal membrane or vesicle subcellular fractions. Samples were added to 20 μl of loading buffer (final concentration: 2.25% SDS, 18% glycerol, 180 mM Tris Base (pH 6.8), 10% […] and bromophenol blue). Approximately 60 μg protein of the whole synaptosomal fraction, 40 μg protein of the plasmalemmal membrane fraction or 20 μg protein of the vesicle subcellular fraction was loaded per well in a 10% SDS-polyacrylamide gel. Following electrophoresis, samples were transferred to polyvinylidene difluoride hybridization transfer membrane (New England Nuclear (NEN), Boston, Mass.). All subsequent incubation steps were performed at room temperature while shaking. Each membrane was first blocked for 2 h in 100 ml of tris buffer saline with tween (TBST; 250 mM NaCl, 50 mM tris pH 7.4 and 0.05% tween 20) containing 5% nonfat dry milk. Each membrane was then incubated with anti-VMAT-2 antibody (1:4000 dilution) in 13 ml of TBST with 5% milk for 1 h and then washed 5 times (2×1 min wash; 3×5 min wash) in 70 ml TBST with 5% milk.

VMAT-2 [3] = target: T1, VMAT-2 (Rattus norvegicus, UniProt Q01827); test: [3H]DHTBZ binding in purified striatal vesicles prepared from treated rats
T1 sequence (Q01827 whole entry): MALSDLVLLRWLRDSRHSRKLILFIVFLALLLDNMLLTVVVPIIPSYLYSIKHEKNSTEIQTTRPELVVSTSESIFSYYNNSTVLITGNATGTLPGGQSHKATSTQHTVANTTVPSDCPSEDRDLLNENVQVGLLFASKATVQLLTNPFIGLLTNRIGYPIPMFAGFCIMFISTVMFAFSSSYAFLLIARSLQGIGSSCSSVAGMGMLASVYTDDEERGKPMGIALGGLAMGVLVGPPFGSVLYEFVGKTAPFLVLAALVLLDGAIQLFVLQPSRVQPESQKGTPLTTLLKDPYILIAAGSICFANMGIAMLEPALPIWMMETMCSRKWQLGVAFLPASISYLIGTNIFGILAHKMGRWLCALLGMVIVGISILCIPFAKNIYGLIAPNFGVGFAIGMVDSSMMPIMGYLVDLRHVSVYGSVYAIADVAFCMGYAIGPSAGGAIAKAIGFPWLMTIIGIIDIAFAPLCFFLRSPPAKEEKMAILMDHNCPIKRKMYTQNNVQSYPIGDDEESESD
Description: Synaptic vesicles were obtained from synaptosomes prepared from rat striatum as described above. Synaptosomes were resuspended and homogenized in cold distilled deionized water. Osmolarity was restored by addition of HEPES and potassium tartrate 245 and 100 mM (final concentrations; pH 7.5), respectively. Samples were centrifuged for 20 min at 20,000×g (4° C.) to remove lysed synaptosomal membranes. MgSO4 (1 mM, final concentration) was added to the supernatant, which was then centrifuged for 45 min at 100,000×g (4° C.). The resulting vesicular pellet was resuspended in wash buffer at a concentration of 50 mg/ml (original tissue weight). […] Binding of [^3H]DHTBZ was performed as described by Teng et al. (1998). Briefly, 200 μl of the synaptic vesicle preparation (˜6 μg of protein) was incubated in wash buffer in the presence of [^3H]DHTBZ (2 nM final concentration) for 10 min at 25° C. The reaction was terminated by addition of 1 ml of cold wash buffer and rapid filtration through Whatman GF/F filters soaked in 0.5% polyethylenimine. Filters were washed three times with ice-cold wash buffer. Nonspecific binding was determined by coincubation with 20 μM tetrabenazine. All protein concentrations were determined by a BioRad protein assay (Bio-Rad, Richmond, Calif.).
Binding of [^3H]DHTBZ was performed as described by Teng et al. (1998). Briefly, 200 μl (˜6 μg protein) of the synaptic vesicle preparation was incubated in wash buffer in the presence of [^3H]DHTBZ (2 nM final concentration except in kinetic analyses wherein 0.25-500 nM DHTBZ was employed) for 10 m in at 25° C. The reaction was terminated by addition of 1 ml cold wash buffer and rapid filtration through Whatman GF/F filters soaked in 0.5% polyethylenimine. Filters were washed three times with ice-cold wash buffer. Radioactivity trapped in filters was counted using a liquid scintillation counter. Nonspecific binding was determined by coincubation with 20 μM TBZ. All protein concentrations were determined by a Bio-Rad protein assay (Bio-Rad Inc.).
Binding of[^3H]DHTBZ was performed as described by Teng et al. (1998). Briefly, 200 μl (˜5 μg protein) of the synaptic vesicle preparation was incubated in wash buffer in the presence of [^3H]DHTBZ (2 nM final concentration except in kinetic analyses wherein 0.25-500 nM DHTBZ was employed) for 10 m in at 25° C. The reaction was terminated by addition of 1 ml cold wash buffer and rapid filtration through Whatman GF/F filters soaked in 0.5% polyethylenimine. Filters were washed three times with ice-cold wash buffer. Radioactivity trapped in filters was counted using a liquid scintillation counter. Nonspecific binding was determined by coincubation with 20 μM TBZ. All protein concentrations were determined by a Bio-Rad protein assay (Bio-Rad Inc.).

[4] = Striatal tissue DA content of treated rats (HPLC); assay type: in vivo, rat; conditions: rats
Description: On the day of the assay, frozen tissue samples were thawed, sonicated for 3-5 s in tissue buffer (0.05 M sodium phosphate/0.03 M citric acid buffer with 15% methanol (v/v); pH 2.78), and centrifuged for 15 min at 22,000×g. Tissue pellets were retained and protein determined according to the method of Lowry et al. (1951). The supernatant was centrifuged a second time for 15 min at 22,000×g. 20 μl of supernatant were injected onto a high performance liquid chromatograph system coupled to an electrochemical detector (+0.73 V) for separation and quantitation of dopamine levels using the method of Chapin et al. (1986).

VMAT-2 [5] = target: T1, VMAT-2; assay type: in vivo; parameters: purified striatal vesicles prepared from treated rats; from tissue; host or cells: striatum of male Sprague-Dawley rats (synaptic vesicles; P2, P3, S3 fractions); conditions: for Km: read-out: Km of vesicular [3H]DA uptake
Description: Osmolarity was restored by addition of N-(2-hydroxyethyl)-piperazine-N′-2-ethanesulfonic acid (HEPES) and potassium tartrate 25 mM and 100 mM (final concentrations; pH 7.5 at 4° C.), respectively.

[6] = METH 4 x 7.5 mg/kg s.c., 2-h intervals
[7] = methamphetamine 4 x 10 mg/kg s.c.
[8] = rats, METH 4 x 7.5 mg/kg s.c., 2-h intervals
[9] = rats, single 15 mg/kg METH injection s.c., 1 h
[10] = rats, MPD 5 mg/kg s.c. injections
[11] = MPD-treated rats, 40 mg/kg s.c., 1 h

CN[C@@H](C)Cc1ccccc1 (racemic) [METH, methamphetamine]
vesicular DA levels ([1]; METH-treated rats, 4 x 7.5 mg/kg s.c., 1 h after treatment, n=6): 2.30±2.5 pg/μg protein
decrease in vesicular DA levels ([1]; rats, METH 4 x 7.5 mg/kg s.c., 2-h intervals, 1 h after treatment): 49%
decrease in vesicular DA content ([1]; rats, multiple METH, 6 h after drug treatment): 60%
VMAT-2 immunoreactivity in the plasmalemmal membrane fraction (P3) (VMAT-2 [2]; [6]): no change
VMAT-2 immunoreactivity in the vesicular subcellular fraction (S3) (VMAT-2 [2]; [6]): rapidly decreased
VMAT-2 immunoreactivity in the whole synaptosomal fraction (P2) (VMAT-2 [2]; [6]): Slight decreases; also recorded: no change
decrease in VMAT-2 immunoreactivity in the P2 fraction (VMAT-2 [2]; methamphetamine 4 x 10 mg/kg s.c., 2-h intervals): 25%
decrease in VMAT-2 immunoreactivity in the P2 fraction (VMAT-2 [2]; methamphetamine 4 x 10 mg/kg s.c., 2-h intervals, listed as methamphetamine): 40%
VMAT-2 immunoreactivity in the P3 fractions (VMAT-2 [2]; [7]): no difference
decrease in VMAT-2 immunoreactivity in the S3 fraction (VMAT-2 [2]; [7]): 80%
DHTBZ binding 1 h after the last METH injection (VMAT-2 [3]; [8]): rapidly decreased
striatal DA levels 7 d after treatment ([4]; METH 4 x 7.5 mg/kg s.c., 2-h intervals, vs saline/saline): decreased
decrease in whole tissue DA content ([4]; multiple METH, 6 h after drug treatment): 60%
persistence of the decreases in vesicular DA uptake and DHTBZ binding after treatment (VMAT-2 [5]; rats, METH 4 x 7.5 mg/kg s.c.): at least 6 h
vesicular DA uptake 1 h after the last METH injection (VMAT-2 [5]; [8]): rapidly decreased
Vmax of vesicular [3H]DA uptake (VMAT-2 [5]; [9]): 607 fmol/μg protein/min
Km (VMAT-2 [5]; [9]): 0.187 µM
decrease in vesicular [3H]DA uptake (VMAT-2 [5]; rats, single METH 15 mg/kg s.c., 1 h): 25% and 23%
deficit in vesicular [3H]DA uptake 24 h after treatment (VMAT-2 [5]; rats, single METH 15 mg/kg s.c., 24 h): recovered

COC(=O)C(c1ccccc1)C1CCCCN1 (stereo not drawn) [MPD, methylphenidate]
increase in vesicular DA levels ([1]; rats, 3 injections of MPD 5 mg/kg s.c. over a 5 h period, 1 h after the last MPD injection): ~140%
effect of MPD post-treatment on the METH-induced decrease in vesicular DA content ([1]; rats, 3 injections of MPD after multiple METH regimen, 6 h after METH treatment): reversed
VMAT-2 immunoreactivity in the plasmalemmal membrane fraction (VMAT-2 [2]; MPD 40 mg/kg s.c. single): decreased
VMAT-2 immunoreactivity in the vesicular subcellular fraction (VMAT-2 [2]; MPD 40 mg/kg s.c. single): increases
VMAT-2 immunoreactivity in the whole synaptosomal fraction (VMAT-2 [2]; MPD 40 mg/kg s.c. single): no change
transporter Bmax for [3H]DHTBZ (VMAT-2 [3]; MPD-treated rats): 28.87 fmol/μg protein
effect of MPD post-treatment on the METH-induced decrease in DHTBZ binding (VMAT-2 [3]; rats, 1, 2 or 3 injections of MPD 5 mg/kg s.c. during the initial 6-h period after METH): reversed
DHTBZ binding after MPD treatment per se (VMAT-2 [3]; [10]): increased
binding of the VMAT-2 ligand [3H]DHTBZ after a single MPD administration (VMAT-2 [3]; rats, MPD 5-40 mg/kg s.c., 1 h): increase
total tissue DA concentrations ([4]; 3 injections of MPD 5 mg/kg s.c., 1 h after the last MPD injection): without altering
total DA levels 7 d after MPD per se ([4]; MPD 5 mg/kg s.c.): did not alter
effect of post-treatment with a single MPD injection on the 7-d striatal DA depletions caused by METH ([4]; MPD 5 mg/kg s.c. 1 h after the last METH (4 x 7.5 mg/kg s.c.)): partially reversed
effect of two or three MPD injections on the persistent METH-induced striatal DA depletions ([4]; MPD 5 mg/kg s.c. at 1 and 3 h, or 1, 3 and 5 h after the last METH): completely prevented
transporter Vmax of vesicular [3H]DA uptake (VMAT-2 [5]; [11]): 2350±250 fmol/μg protein/3 min
Km (VMAT-2 [5]; [11]): 0.23 ± 0.01 µM
effect of MPD post-treatment on the METH-induced decrease in vesicular DA uptake (VMAT-2 [5]; rat, in vivo): reversed
vesicular DA uptake after MPD treatment per se (VMAT-2 [5]; [10]): increased
vesicular [3H]DA uptake after a single MPD administration (VMAT-2 [5]; rats, MPD 5, 10, 20, or 40 mg/kg s.c., 1 h): increases
reversal of the increases in vesicular [3H]DA uptake and [3H]DHTBZ binding (VMAT-2 [5]; rats, after a 40 mg/kg MPD administration): ≤ 12 h
onset of the increases in vesicular [3H]DA uptake and [3H]DHTBZ binding (VMAT-2 [5]; rats, single MPD s.c.): ≤ 30 min
